Article PMC8617031, “Development of a BCL-xL and BCL-2 dual degrader with improved anti-leukemic activity,” (Nature Communications, 2021)
“And” between values parts separate entries of the source, which are not always exact repeats. Equal values may be shown once.

Key:
His-tagged BCL-xL = target: T1, His-tagged BCL-xL (Homo sapiens, UniProt Q07817); experiment: AlphaScreen competitive binary binding, BCL-xL (biotin-BAD peptide)
T1 construct: purchased Sigma-Aldrich SRP0187
Description: (§1) The reagents were diluted in a buffer containing 250 mM HEPES pH 7.5, 1 M NaCl, 1% BSA, and 0.05% Tween-80. His-tagged BCL-xL (0.5 nM, Cat. No. SRP0187, Sigma-Aldrich) or BCL-2 (1 nM, Cat. No. SRP0186, Sigma-Aldrich) were incubated with serial diluted 753a or 753b and 2 nM biotin-tagged BAD (biotin-[…] amino-terminal, AnaSpec, for BCL-xL) or 10 nM BIM peptides (biotin-[…] N-terminal, AnaSpec, for BCL-2) to a final volume of 40 µl in a 96-well PCR plate. […] After incubation for 2 h, 5 µl 6× His-acceptor beads (Cat. No. AL128M, PerkinElmer) were added to each well at 20 µg/ml final concentration and incubated for 1 h. Then 5 µl streptavidin-donor beads were added (Cat. No. 6760002, PerkinElmer) to each well at 20 µg/ml final concentration and incubated for 45 min. At the end of the incubation period, 17 µl of each sample was transferred in adjacent wells of 384-well proxy plate (Cat. No. 6008280, PerkinElmer). The plate was scanned using the Alpha program on Biotek’s Synergy Neo2 multimode plate reader. The inhibition constant (Ki) was calculated using the non-linear regression, one site, competitive binding, Fit Ki function on GraphPad Prism 9 software, based on experimentally determined dissociation constant (Kd) for each protein–peptide pair.

293T cells = experiment: Viability (MTS) of 293T cells; format: cell-based, human; conditions: normalised to own plate; for 293T cell viability, MTS absorbance 490 as percent of untreated control, mean of three wells: mean of 3 wells
Description: (§2) Suspension cells were treated 30 min after seeding, whereas adherent cells were allowed to adhere overnight and were then treated. Compound treatments were prepared in complete cell culture medium and 100 µl of 2× treatment-containing medium were added to each well. Complete cell culture medium without treatment was added in control wells, and wells containing medium without cells served as background. The outer wells of the 96-well plate were not used for treatment and were filled with 250 µl of PBS to reduce evaporation of medium from inner wells. Each compound and/or combination was tested at nine different concentrations with three replicates. The cell viability was measured after 72 h by tetrazolium-based MTS assay. MTS reagent (2 mg ml^–1 stock; cat. no. G1111, Promega) was freshly supplemented with phenazine methosulfate (PMS, 0.92 mg ml^–1 stock, cat. no. P9625, Sigma-Aldrich) in 20:1 ratio, and 20 µl of this mixture was added to each control and treatment well. The cells were incubated for 4 h at 37 °C and 5% CO2, and then the absorbance was recorded at 490 nm using Biotek’s Synergy Neo2 multimode plate reader (Biotek). The average absorbance value of background wells was subtracted from absorbance value of each control and treatment well, and percent cell viability ((At/A0) × 100)) was determined in each treatment well, where At is the absorbance value of the treatment well and A0 is the average absorbance value of control wells after background subtraction. The data were expressed as average percentage cell viability and fitted in non-linear regression curves using GraphPad Prism 7 (GraphPad Software, La Jolla, CA, USA).

His-tagged BCL-2 = target: T2, His-tagged BCL-2 (Homo sapiens, UniProt P10415); experiment: AlphaScreen competitive binary binding, BCL-2 (biotin-BIM peptide)
T2 construct: purchased Sigma-Aldrich SRP0186
Description: as §1

Hela cells = experiment: Viability (MTS) of Hela cells; format: cell-based, human; conditions: for cell viability normalised to control wells (single replicate): in % (unit assumed)
Description: as §2

[1] = AlphaScreen, Supplementary Fig. 6
[2] = MTS absorbance 490, Conc 0.00137174 uM
[3] = MTS absorbance 490, Conc 0.00411523 uM
[4] = MTS absorbance 490, Conc 0.037037 uM
[5] = MTS absorbance 490, Conc 0.111111 uM
[6] = MTS absorbance 490, Conc 0.333333 uM

T1 sequence (Q07817 whole entry): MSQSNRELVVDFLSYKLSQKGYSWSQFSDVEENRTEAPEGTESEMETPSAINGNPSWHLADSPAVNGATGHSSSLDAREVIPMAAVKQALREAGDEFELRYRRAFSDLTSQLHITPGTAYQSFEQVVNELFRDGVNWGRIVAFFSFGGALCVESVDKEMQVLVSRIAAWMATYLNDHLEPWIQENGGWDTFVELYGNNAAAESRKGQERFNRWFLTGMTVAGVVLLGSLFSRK
T2 sequence (P10415 whole entry): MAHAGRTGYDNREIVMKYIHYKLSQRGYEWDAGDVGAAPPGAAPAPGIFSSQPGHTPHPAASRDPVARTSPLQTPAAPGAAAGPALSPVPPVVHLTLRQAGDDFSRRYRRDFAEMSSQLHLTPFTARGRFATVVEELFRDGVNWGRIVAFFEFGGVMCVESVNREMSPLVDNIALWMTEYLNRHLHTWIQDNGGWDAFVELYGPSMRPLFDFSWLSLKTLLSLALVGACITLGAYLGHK

## Cc1ncsc1-c1ccc([C@H](C)NC(=O)[C@@H]2C[C@@H](O)CN2C(=O)[C@@H](NC(=O)CCCCCCC(=O)N2CCN(C[C@]3(C)CCC(c4ccc(Cl)cc4)=C(CN4CCN(c5ccc(C(=O)NS(=O)(=O)c6ccc(N[C@H](CCN7CCOCC7)CSc7ccccc7)c(S(=O)(=O)C(F)(F)F)c6)cc5)CC4)C3)CC2)C(C)(C)C)cc1 [753b]
His-tagged BCL-xL; [1]
  binary binding affinity to BCL-xL (in words): much weaker than that of the warhead ABT263
His-tagged BCL-xL; BCL-xL Rep-1
  IC50: 25.6 nM
  Ki: 1.15 nM
His-tagged BCL-xL; BCL-xL Rep-1, plate row B, 5 uM
  Alpha signal (raw counts): 34683 and 41080
His-tagged BCL-xL; BCL-xL Rep-1, plate row D, 0.3125 uM
  Alpha signal (raw counts): 104729 and 120739
His-tagged BCL-xL; BCL-xL Rep-1, plate row E, 0.078125 uM
  Alpha signal (raw counts): 342247 and 341354
His-tagged BCL-xL; BCL-xL Rep-1, plate row F, 0.0195312 uM
  Alpha signal (raw counts): 676907 and 757834
His-tagged BCL-xL; BCL-xL Rep-1, plate row G, 0.00488281 uM
  Alpha signal (raw counts): 979745 and 1069221
His-tagged BCL-xL; BCL-xL Rep-1, plate row H, 0.0012207 uM
  Alpha signal (raw counts): 1220627 and 1147140
His-tagged BCL-xL; BCL-xL Rep-1, plate row I, 0.000305176 uM
  Alpha signal (raw counts): 1208908 and 1239363
His-tagged BCL-xL; BCL-xL Rep-1, plate row J, 7.62939e-5 uM
  Alpha signal (raw counts): 1272719 and 1257225
His-tagged BCL-xL; BCL-xL Rep-1, plate row K, 1.90735e-5 uM
  Alpha signal (raw counts): 1178982 and 1221697
His-tagged BCL-xL; BCL-xL Rep-2, 7.62939e-5 uM
  Alpha signal (raw counts): 1287481 and 1327839
His-tagged BCL-xL; BCL-xL Rep-2, plate row B, 5 uM
  Alpha signal (raw counts): 27681 and 27423
His-tagged BCL-xL; BCL-xL Rep-2, plate row C, 1.25 uM
  Alpha signal (raw counts): 19946 and 33165
His-tagged BCL-xL; BCL-xL Rep-2, plate row D, 0.3125 uM
  Alpha signal (raw counts): 104103 and 115603
His-tagged BCL-xL; BCL-xL Rep-2, plate row E, 0.078125 uM
  Alpha signal (raw counts): 336015 and 412856
His-tagged BCL-xL; BCL-xL Rep-2, plate row F, 0.0195312 uM
  Alpha signal (raw counts): 814066 and 879407
His-tagged BCL-xL; BCL-xL Rep-2, plate row G, 0.00488281 uM
  Alpha signal (raw counts): 1170961 and 1327234
His-tagged BCL-xL; BCL-xL Rep-2, plate row H, 0.0012207 uM
  Alpha signal (raw counts): 1347085 and 1401728
His-tagged BCL-xL; BCL-xL Rep-2, plate row I, 0.000305176 uM
  Alpha signal (raw counts): 1445114 and 1473085
His-tagged BCL-xL; BCL-xL Rep-2, plate row K, 1.90735e-5 uM
  Alpha signal (raw counts): 1348563 and 1319629
His-tagged BCL-xL; BCL-xL, mean of the two replicate values (line without label)
  Ki: 1.31 nM
His-tagged BCL-xL; BCL-xL, second value (line without label below Rep-1, apparently Rep-2)
  Ki: 1.48 nM
293T cells; 0.00137174 uM
  293T cell viability, MTS absorbance 490 as percent of untreated control, mean of three wells: 105.831
  293T cell viability, MTS absorbance 490 as percent of untreated control, single replicate well: 104.459 and 107.926 and 105.109
293T cells; 0.00411523 uM
  293T cell viability, MTS absorbance 490 as percent of untreated control, mean of three wells: 107.998
  293T cell viability, MTS absorbance 490 as percent of untreated control, single replicate well: 111.934 and 109.117 and 102.943
293T cells; 0.037037 uM
  293T cell viability, MTS absorbance 490 as percent of untreated control, mean of three wells: 108.72
  293T cell viability, MTS absorbance 490 as percent of untreated control, single replicate well: 111.175 and 116.05 and 98.9348
293T cells; 0.111111 uM
  293T cell viability, MTS absorbance 490 as percent of untreated control, mean of three wells: 112.8
  293T cell viability, MTS absorbance 490 as percent of untreated control, single replicate well: 120.383 and 115.183 and 102.834
293T cells; 0.333333 uM
  293T cell viability, MTS absorbance 490 as percent of untreated control, mean of three wells: 109.37
  293T cell viability, MTS absorbance 490 as percent of untreated control, single replicate well: 118.975 and 109.225 and 99.9097
293T cells; 1 uM
  293T cell viability, MTS absorbance 490 as percent of untreated control, mean of three wells: 114.606
  293T cell viability, MTS absorbance 490 as percent of untreated control, single replicate well: 117.133 and 117.566 and 109.117
293T cells; 3 uM
  293T cell viability, MTS absorbance 490 as percent of untreated control, mean of three wells: 79.3284
  293T cell viability, MTS absorbance 490 as percent of untreated control, single replicate well: 74.5622 and 86.911 and 76.512
His-tagged BCL-2; [1]
  binary binding affinity to BCL-2 (in words): much weaker than that of the warhead ABT263
His-tagged BCL-2; BCL-2 Rep-2, 0.00488281 uM
  Alpha signal (raw counts): 394963 and 403008
His-tagged BCL-2; BCL-2 Rep-2, plate row B, 5 uM
  Alpha signal (raw counts): 11331 and 13334
His-tagged BCL-2; BCL-2 Rep-2, plate row C, 1.25 uM
  Alpha signal (raw counts): 13467 and 22674
His-tagged BCL-2; BCL-2 Rep-2, plate row D, 0.3125 uM
  Alpha signal (raw counts): 16676 and 24219
His-tagged BCL-2; BCL-2 Rep-2, plate row E, 0.078125 uM
  Alpha signal (raw counts): 24600 and 21594
His-tagged BCL-2; BCL-2 Rep-2, plate row F, 0.0195312 uM
  Alpha signal (raw counts): 68045
His-tagged BCL-2; BCL-2 Rep-2, plate row F, 0.0195312 uM, listed as 753B
  Alpha signal (raw counts): 74511
His-tagged BCL-2; BCL-2 Rep-2, plate row H, 0.0012207 uM
  Alpha signal (raw counts): 630958 and 595808
His-tagged BCL-2; BCL-2 Rep-2, plate row I, 0.000305176 uM
  Alpha signal (raw counts): 751084 and 777257
His-tagged BCL-2; BCL-2 Rep-2, plate row J, 7.62939e-5 uM
  Alpha signal (raw counts): 760517 and 786817
His-tagged BCL-2; BCL-2 Rep-2, plate row K, 1.90735e-5 uM
  Alpha signal (raw counts): 880286 and 989418
Hela cells; [2]
  cell viability normalised to control wells (mean of three replicates): 101.835
  cell viability normalised to control wells (single replicate): 103.801 and 94.6965 and 107.009
Hela cells; [3]
  cell viability normalised to control wells (mean of three replicates): 93.0491
  cell viability normalised to control wells (single replicate): 98.1647 and 87.1532 and 93.8295
Hela cells; [4]
  cell viability normalised to control wells (mean of three replicates): 95.159
  cell viability normalised to control wells (single replicate): 94.6965 and 88.7139 and 102.066
Hela cells; [5]
  cell viability normalised to control wells (mean of three replicates): 93.078
  cell viability normalised to control wells (single replicate): 90.1012 and 81.2572 and 107.876
Hela cells; [6]
  cell viability normalised to control wells (mean of three replicates): 93.8295
  cell viability normalised to control wells (single replicate): 79.8699 and 97.9913 and 103.627
Hela cells; MTS absorbance 490, Conc 1 uM
  cell viability normalised to control wells (mean of three replicates): 89.5809
  cell viability normalised to control wells (single replicate): 76.4884 and 93.6561 and 98.5983
Hela cells; MTS absorbance 490, Conc 3 uM
  cell viability normalised to control wells (mean of three replicates): 87.6734
  cell viability normalised to control wells (single replicate): 75.7081 and 83.5116 and 103.801
